The source of these data is PMC11617253, “Gene expansion in the hawkmoth Manduca sexta drives evolution of food-associated odorant receptors” (iScience, 2024).

Common to all, as to assay: single sensillum recording, Drosophila empty neuron (ab3A)
Common to all, as to assay type: cell-based

One assay addresses T1, MsexOR36 (Manduca sexta, UniProt A0A0P1IVT0).
T1 construct: gene OR-36; full-length CDS (407 aa) from antennal RNA, UAS transgene (pUASTattB) in D. melanogaster ab3A empty neuron (delta-halo; DmelOr22a-Gal4); partner is endogenous fly Orco; with Odorant receptor coreceptor (Drosophila melanogaster, endogenous to the ab3A neuron)
T1 sequence (A0A0P1IVT0 1-407): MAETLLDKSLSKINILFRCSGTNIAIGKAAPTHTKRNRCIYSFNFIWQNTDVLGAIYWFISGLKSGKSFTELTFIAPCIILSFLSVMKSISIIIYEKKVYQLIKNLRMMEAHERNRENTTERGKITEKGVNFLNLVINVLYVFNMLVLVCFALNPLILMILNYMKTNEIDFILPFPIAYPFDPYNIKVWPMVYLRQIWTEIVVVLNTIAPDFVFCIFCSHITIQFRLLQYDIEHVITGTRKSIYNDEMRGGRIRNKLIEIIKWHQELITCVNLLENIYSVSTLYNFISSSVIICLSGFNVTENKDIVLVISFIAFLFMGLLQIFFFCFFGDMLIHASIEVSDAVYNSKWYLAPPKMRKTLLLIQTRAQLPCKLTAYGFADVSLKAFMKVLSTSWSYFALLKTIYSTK
T1 sequence (Q9VNB5 1-486 partner): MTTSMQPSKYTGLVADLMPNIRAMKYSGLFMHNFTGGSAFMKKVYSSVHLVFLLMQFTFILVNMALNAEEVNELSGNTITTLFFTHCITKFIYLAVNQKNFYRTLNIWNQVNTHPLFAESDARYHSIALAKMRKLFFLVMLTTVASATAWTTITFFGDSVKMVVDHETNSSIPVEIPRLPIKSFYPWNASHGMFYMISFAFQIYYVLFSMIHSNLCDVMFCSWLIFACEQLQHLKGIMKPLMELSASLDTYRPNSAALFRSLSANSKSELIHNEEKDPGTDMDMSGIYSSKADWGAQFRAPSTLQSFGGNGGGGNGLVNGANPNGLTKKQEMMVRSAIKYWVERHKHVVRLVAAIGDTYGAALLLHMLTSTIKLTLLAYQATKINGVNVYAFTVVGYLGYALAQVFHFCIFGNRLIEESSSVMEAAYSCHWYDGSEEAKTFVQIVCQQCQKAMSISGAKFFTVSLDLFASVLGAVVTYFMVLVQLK
As to conditions: odor dilution 10^-2 v/v on filter paper, 500 ms pulse.

Another assay addresses T2, MsexOR8 (Manduca sexta, UniProt A0A0P1IW06).
T2 construct: gene OR-8; full-length CDS from antennal RNA, UAS transgene (pUASTattB) in D. melanogaster ab3A empty neuron (delta-halo; DmelOr22a-Gal4); partner is endogenous fly Orco; with Odorant receptor coreceptor (Drosophila melanogaster, endogenous to the ab3A neuron)
T2 sequence (A0A0P1IW06 1-407): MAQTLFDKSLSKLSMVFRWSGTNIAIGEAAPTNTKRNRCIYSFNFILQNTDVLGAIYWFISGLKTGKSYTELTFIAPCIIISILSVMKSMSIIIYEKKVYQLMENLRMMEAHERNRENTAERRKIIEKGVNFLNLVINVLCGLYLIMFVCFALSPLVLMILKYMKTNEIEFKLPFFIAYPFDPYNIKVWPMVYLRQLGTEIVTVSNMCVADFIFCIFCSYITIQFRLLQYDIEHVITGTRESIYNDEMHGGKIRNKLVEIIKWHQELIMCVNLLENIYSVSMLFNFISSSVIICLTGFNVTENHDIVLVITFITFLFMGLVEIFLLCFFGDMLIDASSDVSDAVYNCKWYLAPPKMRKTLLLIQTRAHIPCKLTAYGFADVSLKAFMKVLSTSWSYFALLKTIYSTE
T2 sequence (Q9VNB5 1-486 partner): T1 sequence (Q9VNB5 1-486 partner)
The following applies: odor dilutions 10^-7 to 10^-2 v/v on filter paper, 500 ms pulse.

The target in another assay is T3, MsexOR33 (Manduca sexta, UniProt A0A0P1J430).
T3 construct: gene OR-33; full-length CDS from antennal RNA, UAS transgene (pUASTattB) in D. melanogaster ab3A empty neuron (delta-halo; DmelOr22a-Gal4); partner is endogenous fly Orco; with Odorant receptor coreceptor (Drosophila melanogaster, endogenous to the ab3A neuron)
T3 sequence (A0A0P1J430 entry or part of it, one chain of several): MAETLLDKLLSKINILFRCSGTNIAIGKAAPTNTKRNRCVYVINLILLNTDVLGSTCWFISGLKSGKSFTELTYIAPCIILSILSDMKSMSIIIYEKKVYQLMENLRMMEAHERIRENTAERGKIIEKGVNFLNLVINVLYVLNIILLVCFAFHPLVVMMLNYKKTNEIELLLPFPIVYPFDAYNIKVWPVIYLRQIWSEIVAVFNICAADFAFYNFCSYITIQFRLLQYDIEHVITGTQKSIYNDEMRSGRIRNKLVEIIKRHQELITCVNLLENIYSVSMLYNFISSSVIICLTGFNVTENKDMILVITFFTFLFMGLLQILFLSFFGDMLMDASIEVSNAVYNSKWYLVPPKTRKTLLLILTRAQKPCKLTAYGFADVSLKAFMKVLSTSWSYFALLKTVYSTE
As to conditions: odor dilutions 10^-7 to 10^-2 v/v on filter paper, 500 ms pulse.

As to `C=CC(C)=CCC=C(C)C` [β-ocimene], the “single sensillum recording, Drosophila empty neuron (ab3A)” value (shortened to “single sensillum recording”) on MsexOR36 is “β-ocimene, which was detected only by MsexOR36”. For the compound `CCCCC(=O)OCCC` [propyl valerate], the “single sensillum recording” value at MsexOR8 is “each responding to only one odorant: MsexOR33 (nonanal) and MsexOR8 (propyl valerate)”. `CCCCCCCCC=O` [nonanal]: the “single sensillum recording” value at MsexOR33 was “each responding to only one odorant: MsexOR33 (nonanal) and MsexOR8 (propyl valerate)”.
